We go through 26 compounds from patent US11325899B2, “Benzofurane and benzothiophene derivatives as PGE2 receptor modulators” (IDORSIA PHARMACEUTICALS LTD, priority 2017, dated 2022).

pIC50: −log10 of the molar value.

Assay [1] has as its target T1, PTGER2 (EP2) (Homo sapiens, UniProt P43116).
T1 construct: host or cells: HEK 293 (PathHunter PTGER2 b-arrestin cell line)
Briefly: hEP2 b-arrestin assay (PathHunter HEK 293 PTGER2 b-arrestin cells). The assay is classed as cell-based. The following applies: antagonistic activity, beta-arrestin assay; read-out: hEP2 b-arr IC50. A digest of the protocol: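 Antagonism measured as inhibition of PGE2-driven β-arrestin 2 recruitment (enzyme fragment complementation, luminescence) in engineered HEK293 EP2 cells. Agonist: 5 μM PGE2, ~EC80, 120 min at 37 °C after 15 min compound preincubation; test range 10 μM-2 nM or 1 μM-0.2 nM, duplicates, IC50 fitted.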

Assay [2] addresses T2, EP4 receptor (Homo sapiens, UniProt P35408).
T2 construct: BT549 breast cancer cells, express high endogenous EP4 levels and very low EP2 levels; host or cells: BT549 breast cancer cells
Briefly: hEP4 cAMP assay (BT549 breast cancer cells, HTRF cAMP, PGE2 stimulation). In kind it is cell-based. The following applies: antagonistic activity, PGE2 6 nM (EC80). In outline:
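BT549 cells, with endogenous EP4 and very low EP2, were preincubated 45 min at room temperature with compound in HBSS/HEPES/BSA buffer with 2 mM IBMX. They were then stimulated 30 min with 6 nM PGE2 (EC80). cAMP was measured by HTRF competitive immunoassay against a calibrator; IC50 from duplicate dose-response as % of DMSO control.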

For orientation: pIC50 means −log10 of the IC50, conventionally taken in molar units.

T1 sequence (P43116 whole entry): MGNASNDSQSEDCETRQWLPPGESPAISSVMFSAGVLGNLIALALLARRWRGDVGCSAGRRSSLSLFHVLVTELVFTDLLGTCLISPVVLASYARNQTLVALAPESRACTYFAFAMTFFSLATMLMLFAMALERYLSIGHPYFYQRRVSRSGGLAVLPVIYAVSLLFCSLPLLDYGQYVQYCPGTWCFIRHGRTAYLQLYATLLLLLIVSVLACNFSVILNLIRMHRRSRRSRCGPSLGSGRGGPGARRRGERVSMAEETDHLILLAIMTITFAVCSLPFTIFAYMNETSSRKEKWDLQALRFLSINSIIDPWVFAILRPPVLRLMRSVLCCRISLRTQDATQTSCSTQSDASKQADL
T2 sequence (P35408 whole entry): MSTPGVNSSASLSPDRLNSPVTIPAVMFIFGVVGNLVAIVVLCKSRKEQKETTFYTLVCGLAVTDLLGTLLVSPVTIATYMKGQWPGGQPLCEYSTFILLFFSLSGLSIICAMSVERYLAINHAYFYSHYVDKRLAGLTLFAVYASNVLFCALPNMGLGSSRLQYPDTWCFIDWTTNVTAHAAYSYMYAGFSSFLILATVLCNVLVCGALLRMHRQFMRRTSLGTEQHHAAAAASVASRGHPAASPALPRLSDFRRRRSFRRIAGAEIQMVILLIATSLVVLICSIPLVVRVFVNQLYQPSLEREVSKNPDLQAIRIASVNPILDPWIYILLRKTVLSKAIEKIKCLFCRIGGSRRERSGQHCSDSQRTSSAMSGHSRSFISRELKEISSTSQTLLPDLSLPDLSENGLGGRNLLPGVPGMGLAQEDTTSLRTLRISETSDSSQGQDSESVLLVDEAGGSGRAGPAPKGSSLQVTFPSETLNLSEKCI

As to `CCOc1cc(-c2cc(NCCc3c(C)sc4c(C)c(F)ccc34)ncn2)ccc1OCC(=O)O` [Example 119, (2-Ethoxy-4-{6-[2-(6-fluoro-2,7-dimethyl-benzo[b]thiophen-3-yl)-ethylamino]-pyrimidin-4-yl}-phenoxy)-acetic acid], the negative logarithm of the IC50 (pIC50) in assay [1] is 7.68; in assay [2] it was 6.96.

As for `CCOc1cc(-c2cc(NCCc3c(C)oc4c(Cl)cccc34)ncn2)ccc1OCC(=O)O` [Example 120, (4-{6-[2-(7-Chloro-2-methyl-benzofuran-3-yl)-ethylamino]-pyrimidin-4-yl}-2-ethoxy-phenoxy)-acetic acid], the pIC50 in assay [1] was 7.54; in assay [2] it was 6.91.

Take `CCOc1cc(-c2cc(NCCc3c(C)oc4c(OC)cc(Cl)cc34)ncn2)ccc1OCC(=O)O` [Example 121, (4-{6-[2-(5-Chloro-7-methoxy-2-methyl-benzofuran-3-yl)-ethylamino]-pyrimidin-4-yl}-2-ethoxy-phenoxy)-acetic acid]: the negative-log IC50 (pIC50) in assay [1] was 7.57; in assay [2], 6.89.

Turning to `CCOc1cc(-c2cc(NCCc3c(C)sc4c(C)cccc34)ncn2)ccc1OCC(=O)O` [Example 122, (4-{6-[2-(2,7-Dimethyl-benzo[b]thiophen-3-yl)-ethylamino]-pyrimidin-4-yl}-2-ethoxy-phenoxy)-acetic acid], the negative-log IC50 (pIC50) in assay [1] is 7.85; in assay [2], 6.87.

On to `CCCCOc1cc(-c2cc(NCCc3c(C)sc4c(C)cc(F)cc34)ncn2)ccc1C(=O)O` [Example 127, 2-Butoxy-4-{6-[2-(5-fluoro-2,7-dimethyl-benzo[b]thiophen-3-yl)-ethylamino]-pyrimidin-4-yl}-benzoic acid], for which the pIC50 in assay [1] was 7.80; in assay [2] it was 6.06.

Take `Cc1oc2ccccc2c1CCNc1cc(-c2ccc(C(=O)O)c(SC3CCC3)c2)ncn1` [Example 129, 2-Cyclobutylsulfanyl-4-{6-[2-(2-methyl-benzofuran-3-yl)-ethylamino]-pyrimidin-4-yl}-benzoic acid]: the negative-log IC50 (pIC50) is 8.22 in assay [1] and 6.10 in assay [2].

Turning to `Cc1sc2c(C)cccc2c1CCNc1cc(-c2ccc(C(=O)O)c(SC3CCC3)c2)ncn1` [Example 130, 2-Cyclobutylsulfanyl-4-{6-[2-(2,7-dimethyl-benzo[b]thiophen-3-yl)-ethylamino]-pyrimidin-4-yl}-benzoic acid], the negative-log IC50 (pIC50) was 7.92 in assay [1] and 6.01 in assay [2].

As for `Cc1sc2c(C)cccc2c1CCNc1cc(-c2ccc(C(=O)O)c(SC3COC3)c2)ncn1` [Example 131, 4-{6-[2-(2,7-Dimethyl-benzo[b]thiophen-3-yl)-ethylamino]-pyrimidin-4-yl}-2-(oxetan-3-ylsulfanyl)-benzoic acid], the negative-log IC50 (pIC50) is 7.92 in assay [1] and 6.20 in assay [2].

As to `O=C(O)c1ccc(-c2cc(NCCc3csc4ccccc34)ncn2)cc1OC1CCC1` [Example 132, 4-[6-(2-Benzo[b]thiophen-3-yl-ethylamino)-pyrimidin-4-yl]-2-cyclobutoxy-benzoic acid], the pIC50 in assay [1] is 7.24; in assay [2], 6.78.

With `COc1cc(Cl)cc2c(CCNc3cc(-c4ccc(C(=O)O)c(OC5CCC5)c4)ncn3)c(C)oc12` [Example 133, 4-{6-[2-(5-Chloro-7-methoxy-2-methyl-benzofuran-3-yl)-ethylamino]-pyrimidin-4-yl}-2-cyclobutoxy-benzoic acid], the results for the pIC50 in assay [1] and in assay [2] were 7.60 and 6.77, respectively.

For `COc1ccc(F)c2c(CCNc3cc(-c4ccc(C(=O)O)c(OC5CCC5)c4)ncn3)c(C)sc12` [Example 134, 2-Cyclobutoxy-4-{6-[2-(4-fluoro-7-methoxy-2-methyl-benzo[b]thiophen-3-yl)-ethylamino]-pyrimidin-4-yl}-benzoic acid], the pIC50 in assay [1] was 7.57; in assay [2] it was 6.71.

Turning to `COc1ccc(Cl)c2c(CCNc3cc(-c4ccc(C(=O)O)c(OC5CCC5)c4)ncn3)c(C)sc12` [Example 135, 4-{6-[2-(4-Chloro-7-methoxy-2-methyl-benzo[b]thiophen-3-yl)-ethylamino]-pyrimidin-4-yl}-2-cyclobutoxy-benzoic acid], the negative-log IC50 (pIC50) in assay [1] is 7.85; in assay [2], 6.70.

On to `Cc1sc2c(C)ccc(F)c2c1CCNc1cc(-c2ccc(C(=O)O)c(OC3CCC3)c2)ncn1` [Example 136, 2-Cyclobutoxy-4-{6-[2-(4-fluoro-2,7-dimethyl-benzo[b]thiophen-3-yl)-ethylamino]-pyrimidin-4-yl}-benzoic acid], for which the pIC50 in assay [1] is 7.89; in assay [2] it was 6.39.

`Cc1oc2c(Cl)cccc2c1CCNc1cc(-c2ccc(C(=O)O)c(OC3CCC3)c2)ncn1` [Example 137, 4-{6-[2-(7-Chloro-2-methyl-benzofuran-3-yl)-ethylamino]-pyrimidin-4-yl}-2-cyclobutoxy-benzoic acid]: the negative logarithm of the IC50 (pIC50) in assay [1] is 7.82; in assay [2], 6.37.

With `Cc1sc2c(C)cc(F)cc2c1CCNc1cc(-c2ccc(C(=O)O)c(OC3CCC3)c2)ncn1` [Example 138, 2-Cyclobutoxy-4-{6-[2-(5-fluoro-2,7-dimethyl-benzo[b]thiophen-3-yl)-ethylamino]-pyrimidin-4-yl}-benzoic acid], the values for the negative logarithm of the IC50 (pIC50) in assay [1] and in assay [2] were 7.85 and 6.32, respectively.

For the compound `COc1ccc(F)c2c(CCNc3cc(-c4ccc(C(=O)O)c(OC5CCC5)c4)ncn3)c(C)oc12` [Example 139, 2-Cyclobutoxy-4-{6-[2-(4-fluoro-7-methoxy-2-methyl-benzofuran-3-yl)-ethylamino]-pyrimidin-4-yl}-benzoic acid], the values for the pIC50 in assay [1] and in assay [2] were 7.29 and 6.32, respectively.

In the case of `Cc1oc2c(C)cc(F)cc2c1CCNc1cc(-c2ccc(C(=O)O)c(OC3CCC3)c2)ncn1` [Example 140, 2-Cyclobutoxy-4-{6-[2-(5-fluoro-2,7-dimethyl-benzofuran-3-yl)-ethylamino]-pyrimidin-4-yl}-benzoic acid], the pIC50 in assay [1] was 7.43; in assay [2], 6.24.

Turning to `COc1cc(F)c(F)c2c(CCNc3cc(-c4ccc(C(=O)O)c(OC5CCC5)c4)ncn3)c(C)oc12` [Example 141, 2-Cyclobutoxy-4-{6-[2-(4,5-difluoro-7-methoxy-2-methyl-benzofuran-3-yl)-ethylamino]-pyrimidin-4-yl}-benzoic acid], the results for the pIC50 in assay [1] and in assay [2] were 6.85 and 6.24, respectively.

As for `CCOc1cc(-c2cc(NCCc3c(C)sc4c(C)cc(F)cc34)ncn2)ccc1-c1nnn[nH]1` [Example 142, {6-[3-Ethoxy-4-(1H-tetrazol-5-yl)-phenyl]-pyrimidin-4-yl}-[2-(5-fluoro-2,7-dimethyl-benzo[b]thiophen-3-yl)-ethyl]-amine], the figures for the negative-log IC50 (pIC50) in assay [1] and in assay [2] were 7.92 and 6.98, respectively.

For the compound `CCOc1cc(-c2cc(NCCc3c(C)sc4c(C)cc(F)cc34)ncn2)ccc1OCCC(=O)O` [Example 143, 3-(2-Ethoxy-4-{6-[2-(5-fluoro-2,7-dimethyl-benzo[b]thiophen-3-yl)-ethylamino]-pyrimidin-4-yl}-phenoxy)-propionic acid], the negative logarithm of the IC50 (pIC50) was 7.28 in assay [1] and 6.94 in assay [2].

In the case of `CCCCOc1cc(-c2cc(NCCc3c(C)sc4c(C)cc(F)cc34)ncn2)cc(F)c1C(=O)O` [Example 144, 2-Butoxy-6-fluoro-4-{6-[2-(5-fluoro-2,7-dimethyl-benzo[b]thiophen-3-yl)-ethylamino]-pyrimidin-4-yl}-benzoic acid], the negative logarithm of the IC50 (pIC50) in assay [1] is 7.59; in assay [2] it was 6.95.

Consider `COc1ccc(F)c2c(CCNc3cc(-c4ccc(C(=O)O)c(OC5CCC5)c4F)ncn3)c(C)sc12` [Example 146, 2-Cyclobutoxy-3-fluoro-4-{6-[2-(4-fluoro-7-methoxy-2-methyl-benzo[b]thiophen-3-yl)-ethylamino]-pyrimidin-4-yl}-benzoic acid], for which the pIC50 in assay [1] is 7.33; in assay [2], 6.61.

Regarding `COc1cc(Cl)cc2c(CCNc3cc(-c4ccc(C(=O)O)c(OC5CCC5)c4F)ncn3)c(C)oc12` [Example 147, 4-{6-[2-(5-Chloro-7-methoxy-2-methyl-benzofuran-3-yl)-ethylamino]-pyrimidin-4-yl}-2-cyclobutoxy-3-fluoro-benzoic acid], the negative-log IC50 (pIC50) in assay [1] was 6.67; in assay [2], 6.05.

For `Cc1sc2c(C)ccc(F)c2c1CCNc1cc(-c2cc(F)c(C(=O)O)c(OC3CCC3)c2)ncn1` [Example 148, 2-Cyclobutoxy-6-fluoro-4-{6-[2-(4-fluoro-2,7-dimethyl-benzo[b]thiophen-3-yl)-ethylamino]-pyrimidin-4-yl}-benzoic acid], the pIC50 was 7.52 in assay [1] and 6.62 in assay [2].

As for `COc1ccc(F)c2c(CCNc3cc(-c4cc(F)c(C(=O)O)c(OC5CCC5)c4)ncn3)c(C)sc12` [Example 149, 2-Cyclobutoxy-6-fluoro-4-{6-[2-(4-fluoro-7-methoxy-2-methyl-benzo[b]thiophen-3-yl)-ethylamino]-pyrimidin-4-yl}-benzoic acid], the pIC50 in assay [1] is 7.89; in assay [2] it was 6.62.

As to `COc1cc(F)c(F)c2c(CCNc3cc(-c4cc(F)c(C(=O)O)c(OC5CCC5)c4)ncn3)c(C)oc12` [Example 150, 2-Cyclobutoxy-4-{6-[2-(4,5-difluoro-7-methoxy-2-methyl-benzofuran-3-yl)-ethylamino]-pyrimidin-4-yl}-6-fluoro-benzoic acid], the negative logarithm of the IC50 (pIC50) in assay [1] is 6.96; in assay [2], 6.35.
